Source: patent EP4596561A1, “PHOSPHORUS-CONTAINING COMPOUND, PHARMACEUTICAL COMPOSITION AND USE THEREOF” (Suzhou Genhouse Bio Co., Ltd., priority 2022, dated 2024)
Where two headings read alike, the source gives them in different places.

How the values were obtained:
[1] = Pharmacokinetic test in mice (low dose); type: in vivo, Balb/c mice; details: mouse, in vivo
Protocol: The compounds of the present disclosure were administered to Balb/c mice by single intravenous injection and oral gavage, and the plasma of the mice at each time point was collected. The concentration of the compounds to be tested in BALB/C plasma was detected using the LC-MS/MS analysis method, and pharmacokinetic analysis was performed.
The mixture was vortexed, shaken, and ultrasonicated. The remaining volume of 25% sulfobutylether-β-cyclodextrin (sterilized) was added to prepare the final concentration solution or suspension.
Intravenous injection formulations will be directly administered in animal experiments without filtration. The IV drug preparation vials were disinfected in an infrared sterilization cabinet one day in advance.
Intravenous injection: Administration was performed via the tail vein. After the needle was inserted, the syringe was slowly […].
Gavage: Gavage needle and syringe of an appropriate type were selected. The gavage needle was inserted from the root of the tongue into the esophagus until it reached near the cardia of the stomach, then the drug formulation was injected, and the gavage needle was withdrawn. When disposable plastic gavage needles were used, one needle was used for each group.
At each time point, 60 µL of whole blood was collected from the submandibular vein or tail vein (except for the IV group). The blood sample was added to a pre-cooled anticoagulant blood collection tube containing anticoagulant EDTA-K2 (1 µL, 15% EDTA-K2 solution), placed on wet ice, and centrifuged (3000 g, 4 °C, 10 min) within 1 h. The plasma was immediately collected after centrifugation, transferred to an EP tube, and stored at -90 °C to -60 °C.
Plasma concentration detection: A developed LC-MS/MS method was used to detect the compounds in plasma.
The plasma concentration-time data were analyzed using a non-compartmental model in the Phoenix® WinNonlin® (Version 8.2, Pharsight, Mountain View, CA).

[2] = Saturated solubility in FaSSIF solution; type: physicochemical; details: room temperature, stirred overnight
Protocol: Efficacy Experimental Example 9: Test of Saturated Solubility of Samples in FaSSIF Solution
About 0.21 g of sodium hydroxide, about 2.24 g of sodium dihydrogen phosphate dihydrate, and 3.09 g of sodium chloride were weighed out and dissolved in 500 mL of water, and after dissolution, the pH was adjusted to 6.5 with 1 N sodium hydroxide or 1 N hydrochloric acid.
112 mg of FaSSIF solid was weighed out and placed in a 50 mL volumetric flask, and the buffer described above was added for dissolution. The resulting solution was diluted to volume, mixed well, and left to stand at room temperature for 2 h or more.
Test sample: About 1 mg of the test sample was taken, and 1 mL of FaSSIF solution was added. The mixture was stirred at room temperature overnight and centrifuged, and the supernatant was collected and injected for analysis.
Reference sample solution: About 1.5 mg of the test sample was precisely weighed out and placed in a 50 mL volumetric flask, and DMF was added for dissolution. The resulting solution was diluted to volume and mixed well.
The peak of the main component of the reference sample and the peak of the test sample with the same retention time were integrated, and the concentration thereof in the FaSSIF solution was calculated according to the external standard method.

[3] = in vivo; details: mouse, plasma, po, 200 mg/kg
Protocol: After adding 5% DMSO, the mixture was vortexed. 15% HS15 was then added, and the mixture was vortexed again. Finally, a 10% aqueous cyclodextrin solution was added, and the resulting mixture was vortexed to prepare the final concentration solution or suspension.

[4] = system: YAP-TEAD transcription complex; experiment: YAP-TEAD reporter gene assay (dual luciferase, stably transfected 293T cells); type: cell-based; details: Homo sapiens, HEK-293T
Protocol: YAP-TEAD reporter gene The YAP-TEAD reporter gene assay was performed as follows. Firstly, the 8xGTIIC promoter sequence ([…] GTACTGTTGGTAAA) was constructed into a pGL4.20(luc2-Puro) plasmid, and the TK promoter ([…]) unrelated to the hippo pathway was constructed into a pGL4.78(hRlucCP/Hygro) plasmid, thereby constructing stably transfected 293T cells that can stably and continuously express the transcriptional activity of the YAP-TEAD transcription complex. After selection and identification of individual clones, the clones were grown and maintained in a DMEM medium containing 10% fetal bovine serum, penicillin-streptomycin solution, 1 µg/mL puromycin, and 150 µg/mL hygromycin. To perform reporter gene assays with the compounds to be tested, the well-growing cells described above were plated in a 384-well plate at a cell density of 3000 cells per well, with 90 µL per well. The periphery was sealed with an appropriate amount of PBS to prevent evaporation of water from the peripheral wells. Administration was performed on the next day after the cell plating. The test compounds were added at different concentration gradients, and three replicate wells were set for each concentration point. The compound concentration started at 5 µM and was diluted seven times with a 5-fold gradient. A corresponding negative control group treated with DMSO was also set up. After 24 h of drug treatment, the detection reagents were prepared first. The Dual-Lumi™ Firefly luciferase detection reagent and Dual-Lumi™ Renilla luciferase detection buffer were dissolved and brought to room temperature. […]. According to the amount of 100 µL of Dual-Lumi™ Renilla luciferase detection working solution required for the detection of each sample, an appropriate amount of Dual-Lumi™ Renilla luciferase detection working solution was prepared. […]. The cell culture plate was taken out and allowed to equilibrate at room temperature for 10 min (usually no more than 30 min). Then, 100 µL of Dual-Lumi™ Firefly luciferase detection reagent was added to each well of a 96-well plate (25 µL per well for the 384-well plate), and the mixture was mixed well. The mixture was then incubated at room temperature (about 25 °C) for 10 min to stabilize the luminescent signal, and then chemiluminescence was detected using a multimode microplate reader with a chemiluminescence detection function. Subsequently, the detection of Renilla luciferase began. Firstly, 100 µL of Dual-Lumi™ Renilla luciferase detection working solution was added to each well of a […] (25 µL per well for the 384-well plate), and the mixture was mixed well. The mixture was then incubated at room temperature (about 25 °C) for 10 min to stabilize the luminescent signal. Finally, chemiluminescence was detected using a multimode microplate reader with a chemiluminescence detection function. The obtained data were analyzed using GraphPad Prism 7.0 software. A sigmoidal dose-survival rate curve was plotted using a non-linear regression model, and the IC50 values were calculated.

[5] = system: NCI-H2452 (NF2 wide-type); experiment: Inhibition of cell proliferation (CellTiter-Lumi); type: cell-based; details: Homo sapiens, 72 h + another 72 h treatment
Protocol: (§1) NCI-H2052 (NF2 mutant), NCI-H226 (NF2 mutant), NCI-H2452 (NF2 wide-type), NCI-H28 (NF2 wide-type), and MSTO-211H (NF2 wide-type) cells were cultured in RPMI 1640 complete media.
(§2) The normally growing cells described above were digested with a trypsin cell-digesting solution, centrifuged, counted, and then plated in a 96-well plate at a density of 1000 cells per well. Administration was performed 24 h after the cell plating. Inhibitors at different concentration gradients were added at 10 µL per well, and three replicate wells were set for each concentration point. The starting concentration was 20 µM and diluted 8 times with a 4-fold gradient. A corresponding negative control group treated with 0.1% DMSO was also set up. After 72 h of drug treatment, the cell culture plate to be tested was taken out of the incubator. The culture medium in the 96-well plate was pipetted, and 190 µL of fresh RPMI 1640 complete medium was added. Another administration was performed, and the cells were cultured for another 72 h. The 96-well plate was taken out and allowed to equilibrate at room temperature for 10 min. […] After shaking for two minutes, the mixture was reacted at room temperature for 10 min. Then, 150 µL of liquid was pipetted from the transparent 96-well plate and transferred to a white 96-well plate for chemiluminescence reading. The background value was subtracted from the value for each well to calculate the cell survival rate. Survival rate (%) = […]. Sample is the chemiluminescence of the drug-treated group, and Vehicle is the […] of the DMSO control group. A sigmoidal dose-survival rate curve was plotted using a non-linear regression model in the GraphPad Prism 7.0 software, and the IC50 values or GI50 values were calculated.

[6] = system: NCI-H28 (NF2 wide-type); experiment: Inhibition of cell proliferation (CellTiter-Lumi); type: cell-based; details: Homo sapiens, 72 h + another 72 h treatment
Protocol: as §1, §2

[7] = 293T reporter cells, 24 h of drug treatment, read-out: IC50

Compound: CC(C)NC(=O)c1ccc2c(Oc3ccc(C(F)(F)F)cc3)cccc2c1 [Comparative compound B1, reference compound]
- bioavailability ([1]; Balb/c): 81%
- AUC(0-t) ([1]; Balb/c, iv, 2 mg/kg): 1.24 µM·h
- clearance ([1]; Balb/c, iv, 2 mg/kg): 70.8 mL/min/kg
- half-life ([1]; Balb/c, iv, 2 mg/kg): 1.4 h
- AUC(0-t) ([1]; Balb/c, po, 10 mg/kg): 4.87 µM·h
- Cmax ([1]; Balb/c, po, 10 mg/kg): 0.653 µM
- half-life ([1]; Balb/c, po, 10 mg/kg): 5.6 h

Compound: CNS(=O)(=O)c1ccc2c(Oc3ccc(C(F)(F)F)cc3)cccc2c1 [Comparative compound B2, reference compound]
- FaSSIF(pH = 6.5) [2]: 16.4 ug/mL
- bioavailability ([1]; Balb/c): 87.5%
- AUC(0-t) ([1]; Balb/c, iv, 2 mg/kg): 8.75 µM·h
- clearance ([1]; Balb/c, iv, 2 mg/kg): 6.03 mL/min/kg
- half-life ([1]; Balb/c, iv, 2 mg/kg): 19.6 h
- AUC(0-t) ([1]; Balb/c, po, 10 mg/kg): 52.8 µM·h
- Cmax ([1]; Balb/c, po, 10 mg/kg): 4.21 µM
- half-life ([1]; Balb/c, po, 10 mg/kg): 9.3 h
- AUC(0-t) [3]: 902 µM·h

Compound: CNS(=O)(=O)c1ccc(Nc2ccc(C(F)(F)F)cc2)c(-c2cn(C)cn2)c1 [Comparative compound B3, reference compound]
- FaSSIF(pH = 6.5) [2]: 14.0 ug/mL
- AUC(0-t) [3]: 1040 µM·h

Compound: CNS(=O)(=O)c1cnc(Oc2ccc(C(F)(F)F)cc2)c(-c2cn3c(n2)CCC3)c1 [Comparative compound B4, reference compound]
- FaSSIF(pH = 6.5) [2]: 36.2 ug/mL

Compound: CP(C)(=O)c1cnc(Oc2ccc(C(F)(F)F)cc2)c(-c2cn3c(n2)CCC3)c1 [Example 9]
- MRT ([1]; mice, IV 2 mg/kg): 1.7 h
- AUC(0-t) ([1]; mice, IV 2 mg/kg, read-out: AUClast): 5.74 µM·h
- clearance ([1]; mice, IV 2 mg/kg, read-out: Cl (converted)): 13.3 mL/min/kg
- half-life ([1]; mice, IV 2 mg/kg, read-out: T1/2 (converted)): 1.4 h
- MRT ([1]; mice, PO 10 mg/kg): 3.2 h
- bioavailability ([1]; mice, PO 10 mg/kg vs IV 2 mg/kg, read-out: F%): 111%
- AUC(0-t) ([1]; mice, PO 10 mg/kg, read-out: AUClast): 30.5 µM·h
- Cmax ([1]; mice, PO 10 mg/kg, read-out: Cmax): 9.37 µM
- half-life ([1]; mice, PO 10 mg/kg, read-out: T1/2 (converted)): 1.9 h
- IC50 ([4]; 24 h): 160 nM

Compound: Cn1ccc(-c2cc(P(C)(C)=O)cnc2Nc2ccc(C(F)(F)F)cc2)n1 [Example 17]
- IC50 [5]: > 1250 nM
- IC50 [6]: 958 nM
- IC50 [4, 7]: 11.8 nM

Compound: CP(C)(=O)c1ccc(Nc2ccc(C(F)(F)F)cc2)c(-c2cn3c(n2)CCC3)c1 [Example 21]
- IC50 ([4]; 24 h): 7.46 nM

Compound: Cn1cnc(-c2cc(P3(=O)CCOCC3)ccc2Nc2ccc(C(F)(F)F)cc2)c1 [Example 23]
- IC50 ([4]; 24 h): 27.4 nM

Compound: CCc1ccc(Oc2cccc3cc(P(C)(C)=O)ccc23)cc1 [Example 25]
- IC50 [5]: > 20000 nM
- IC50 [6]: > 20000 nM

Compound: CP(C)(=O)c1ccc2c(Oc3ccc(C4CC4)cc3)cccc2c1 [Example 26]
- IC50 [5]: > 5000 nM
- IC50 [6]: > 5000 nM

Compound: CP(C)(=O)c1ccc2c(Oc3ccc(OC(F)(F)F)cc3)cccc2c1 [Example 27]
- IC50 [5]: > 20000 nM
- IC50 [6]: > 5000 nM

Compound: CP(C)(=O)c1ccc2c(Oc3ccc(Cl)cc3)cccc2c1 [Example 28]
- IC50 [5]: > 50000 nM
- IC50 [6]: > 20000 nM
- IC50 [4, 7]: 283 nM

Compound: Cn1cnc(-c2cc(P(C)(C)=O)ccc2Nc2ccc3c(c2)OC(F)(F)O3)c1 [Example 30]
- IC50 ([4]; 24 h): 23.7 nM

Compound: Cn1cnc(-c2cc(P(C)(C)=O)ccc2Nc2ccc(S(F)(F)(F)(F)F)cc2)c1 [Example 31]
- IC50 [4, 7]: 61.9 nM

Compound: Cn1cnc(-c2cc(P(C)(C)=O)ccc2Nc2ccc(Cl)cc2)c1 [Example 32]
- IC50 ([4]; 24 h): 78.5 nM

Compound: CP(C)(=O)c1cnc(Nc2ccc(C(F)(F)F)cc2)c(-c2ccccn2)c1 [Example 33]
- IC50 ([4]; 24 h): 19.8 nM

Compound: Cn1cnc(-c2cc(P(C)(C)=O)cnc2Nc2ccc3c(c2)OC(F)(F)O3)c1 [Example 34]
- IC50 [5]: > 5000 nM
- IC50 [6]: > 5000 nM
- IC50 [4, 7]: 191 nM

Compound: Cn1cnc(-c2cc(P(C)(C)=O)cnc2Nc2ccc(S(F)(F)(F)(F)F)cc2)c1 [Example 36]
- IC50 [5]: > 20000 nM
- IC50 [6]: > 20000 nM
- IC50 [4, 7]: 39.2 nM

Compound: CP(C)(=O)c1cnc(Nc2ccc(S(F)(F)(F)(F)F)cc2)c(-c2cn3c(n2)CCC3)c1 [Example 37]
- IC50 ([4]; 24 h): 5.93 nM

Compound: CP(C)(=O)c1cnc(Nc2ccc(Cl)cc2)c(-c2cn3c(n2)CCC3)c1 [Example 38]
- IC50 ([4]; 24 h): 28.7 nM

Compound: CP(C)(=O)c1cnc(Nc2ccc3c(c2)OC(F)(F)O3)c(-c2cn3c(n2)CCC3)c1 [Example 39]
- IC50 [5]: > 1250 nM
- IC50 [6]: > 1250 nM
- IC50 [4, 7]: 32.4 nM
